Results reported in US20230009323A1, “COMPOUNDS AND METHODS FOR THE TREATMENT OF CRYPTOSPORIDIOSIS” (The Broad Institute, Inc., priority 2019, published 2023).
Read-outs that look alike come from different tables or passages of the source.

Columns and labels:
[1] = system: C. parvum Iowa isolate (Bunch Grass Farm); assay: C. parvum Iowa isolate (Bunch Grass Farm) growth in HCT-8 cells, high-content microscopy; format: cell-based; settings: Cryptosporidium parvum
Procedure: A high-content microscopy assay was used to measure activity of compounds against C. parvum grown in the human adenocarcinoma cell line HCT-8 (ATCC) as disclosed in Bessoff, K., et al., Antimicrobial agents and chemotherapy 57, 1804-1814, doi:10.1128/AAC.02460-12 (2013), hereby incorporated by reference in its entirety. HCT-8 cells were cultured in 384-well clear-bottomed plates in 50 μL per well of RPMI 1640 medium ([…]), 120 U·mL^−1 penicillin, and 120 μg·mL^−1 streptomycin (ATCC) at 37° C. under 5% CO2. For compound screening and follow-up SAR studies, confluent cell monolayers were infected with C. parvum Iowa isolate oocysts [Bunch Grass Farm (Deary, Id.); ˜5,500 oocysts per well] after inducing excystation by treatment for 10 min at 37° C. with 10 mM HCl and then 10 min at 16° C. in 2 mM sodium taurocholate. Compounds were added at the indicated concentrations 3 h after monolayer infection. After incubation (37° C., 5% CO2) for 48 h, the cells were washed three times with PBS containing 111 mM D-Galactose and fixed by adding an equal volume of 8% formaldehyde in PBS. Cell monolayers were then prepared for microscopy by permeabilizing with 0.1% Triton X-100, washing three times with PBS with 0.1% Tween 20, blocking with 4% bovine serum albumin (BSA) in PBS for 2 h at 37° C. or 4° C. overnight, and staining parasitophorous vacuoles with 1.33 μg·mL^−1 of fluorescein-labeled Vicia villosa lectin (Vector Laboratories) diluted in 1% BSA in PBS with 0.1% Tween 20 for 1 h at 37° C. DNA was then stained by adding Hoechst 33258 (AnaSpec) at a final concentration of 0.09 mM diluted in water, followed by washing five times with PBS containing 0.1% Tween 20. Images were acquired using a Nikon Eclipse TE2000 epifluorescence microscope with an automated stage that was programmed using NIS-Elements Advanced Research software (Nikon) to focus on the center of each well and take a 3×3 composite image using an EXi Blue fluorescence microscopy camera (QImaging) with a 20× objective (numerical aperture 0.45). Nucleus and parasite images were exported separately as tif files and analyzed using NIH ImageJ and previously reported macros, and data analysis and graphing were done using GraphPad Prism software, version 6.01. […]

[2] = system: P. falciparum; assay: P. falciparum blood-stage growth inhibition; format: cell-based; settings: Plasmodium falciparum
Procedure: Pf EC50's were obtained using the procedure disclosed in Bessoff, K. et al. Antimicrobial agents and chemotherapy 58, 2731-2739, doi:10.1128/AAC.02641-13 (2014), hereby incorporated by reference in its entirety. Reduction in C. parvum oocysts/mg feces was determined in the C. parvum immunocompromised mouse model as described in the Examples.

[3] = system: C. parvum; assay: NOD SCID gamma mouse model of established cryptosporidiosis, fecal oocyst shedding by qPCR; format: in vivo, NOD SCID gamma mice; settings: oral, 50 mg/kg every 24 h for 4 days
Description: FIG. 4A is a schematic of NOD SCID gamma (NSG) mouse model of established intestinal cryptosporidiosis. Intestinal C. parvum infection was established by oral gavage of ˜10^5 oocysts either 7 days (FIGS. 4B and C) or 14 days (FIG. 4D) prior to oral treatment with bicyclic azetidines, vehicle, or paromomycin (positive control). All data are the mean and SEM (n=4 mice per experimental group) of parasite shedding per mg of feces measured by qPCR with results for individual mice shown as superimposed data points. Data points for which no parasite DNA was detected are shown at the qPCR assay limit of detection (0.1 oocysts per mg feces).
NOD scid gamma mice (NOD.Cg-Prkdcscid Il2rgtmlWjl/Szj; Jackson Laboratory, Bar Harbor, Me.) (NSG) were used to model established Cryptosporidium infection. All NSG mouse studies were performed in compliance with animal care guidelines and with approval by the University of Vermont Institutional Animal Care and Use Committee. Mice were acquired at three to four weeks of age, and acclimatized for one week prior to infection by oral gavage of ˜10^5 C. parvum Iowa isolate (Bunch Grass Farms) oocysts. They were then treated at the specified times and dosages with each compound dissolved in 0.5% hydroxypropylmethyl cellulose, 0.5% Tween 80 (v/v) plus 5% DMSO.
This cryptosporidiosis infection model used 3-4 week old, freshly weaned, NOD SCID gamma mice orally infected with C. parvum oocysts (˜1×10^5). The infection was monitored by qPCR of feces with primers specific for C. parvum and data are shown as number of oocysts milligram^−1 of feces. Six days following infection and upon confirmation of parasite shedding by qPCR, the three compounds, negative and positive control were orally administered at 50 mg·kg^−1 (body weight) every 24 h for 4 days. (FIGS. 4A-D). […] We then performed a dose-ranging study with Compound 11 using the same immunocompromised mouse model and dosing regimens of 5, 20 and 40 mg·kg^−1 every 24 h for 4 days or 10 mg·kg^−1 every 24 h for 7 days. Mice were monitored for an additional 14 days for relapse of infection.

[4] = system: C. parvum (Iowa) Sterling; assay: C. parvum (Iowa) Sterling growth in HCT-8 cells; format: cell-based; settings: Cryptosporidium parvum
Procedure: (§1) Studies using farm C. parvum isolates and the C. hominis TU502 isolate were performed by Calibr at Scripps Research (La Jolla, Calif.) in 1,536-well plates using a slightly modified immunofluorescence assay as described in Love, M. S. et al. PLoS neglected tropical diseases 11, e0005373, doi:10.1371/journal.pntd.0005373 (2017), hereby incorporated by reference in its entirety. HCT-8 cell culture medium was replaced with RPMI 1640 medium supplemented with 2% heat-inactivated horse serum, 100 U·mL^−1 penicillin, and […] 24 h prior to infection with the indicated isolate. The C. parvum Iowa isolate was included as a reference in all experiments. Imaging was performed using a Cellnsight CX5 High Content screening platform (Thermo Scientific) with a 10× objective and acquisition of one microscopic field per well. Images were processed using HCS Studio Scan software, and the selected-object count (HCT-8 cells) and spot count (parasitophorous vacuoles) were analyzed in Genedata Screener (version 13.0; Standard). Dose-response curves and EC50 values were calculated using the Smart Fit function of Genedata Analyzer.

[5] = system: C. hominis (TU 502); assay: C. hominis TU502 growth in HCT-8 cells; format: cell-based; settings: Cryptosporidium hominis
Procedure: as §1

[6] = HEK293T cytotoxicity; format: cell-based; settings: human, HEK293T cells
[7] = HepG2 cytotoxicity; format: cell-based; settings: human, HepG2 cells
[8] = system: C. parvum (Field Isolate) WSU; assay: C. parvum field isolate (WSU) growth in HCT-8 cells; format: cell-based; settings: Cryptosporidium parvum
Procedure: as §1

[9] = system: HepG2 cells; assay: HepG2 cytotoxicity; format: cell-based; settings: C. parvum Iowa isolate (1% FBS) EC50 compared to HepG2 CC50
[10] = system: C. parvum mutant transgenic PheRS (mut482V); assay: microbe, parasite or virus in culture; format: cell-based, Cryptosporidium parvum
Procedure: (§2) The in vitro drug susceptibility assay using transgenic parasites expressing Nluc was performed as described in Vinyak et al. Briefly, host intestinal epithelial adenocarcinoma (HCT-8) cells grown in 96-well plates were infected with purified transgenic Nluc-expressing oocysts (1,000 oocysts per well) and incubated with different concentrations of Compound 11 for 48 hours. Culture supernatant was discarded from the wells after 48 hours, and 200 μl of NanoGlo lysis buffer containing 1:50 of NanoGlo substrate (Promega) was added to the wells. Lysates were transferred to white 96-well plates and luminescence was measured on a Glomax luminescence reader (Promega). EC50 values were calculated in GraphPad Prism software v7.
(§3) Oocysts from the mutant (mut482V) and wild type (wtL482) transgenic lines were purified as well as the parent strain (Bunchgrass) used to generate the transgenics. Sporozoites were excised from these oocysts and used to infect 96 well format HCT-8 cultures to perform in vitro drug susceptibility assays. Cultures were incubated for 48 hours in the presence of varying concentrations of Compound 11 and parasite growth was measured by establishing whole well luciferase activity to calculate EC50 values for each strain.

[11] = system: C. parvum WT transgenic PheRS (wtL482); assay: In vitro drug susceptibility in HCT-8 cells, luminescence, wild type transgenic; format: cell-based; settings: Cryptosporidium parvum, HCT-8, 48 h, read-out: EC50, wild type transgenic
Procedure: as §2, §3

[12] = system: C. parvum; settings: general statement or literature report; cited from earlier work
[13] = serum not given, read-out: C. parvum EC50
[14] = read-out: C. parvum (Iowa) (1% FBS) BGF EC50
[15] = read-out: C. parvum (Iowa) (10% FBS) BGF EC50

Row | EC50 [1, 13] [nM] | EC50 [1, 14] [nM] | EC50 [1, 15] [nM] | EC50 [4] [nM] | EC50 [5] [nM] | EC50 [8] [nM] | Compound | reduction in oocyst shedding (oocysts per mg feces) [3] | CC50 [6] [nM] | CC50 [7] [nM] | outcome of treatment in C. parvum infected NSG mice [12] | other results
1 | < 73 | 4 | 15 | 2 | 5 | 9 | COc1ccc(NC(=O)N2CCCCN3[C@H](COCCC(=O)O)[C@H](c4ccc(C#Cc5ccccc5)cc4)[C@@H]3C2)cc1 [Compound 10, 3-(((8R,9R,10S)-6-((4-methoxyphenyl)carbamoyl)-9-(4-(phenylethynyl)phenyl)-1,6-diazabicyclo[6.2.0]decan-10-yl)methoxy)propanoic acid] | significant reduction in oocyst shedding | > 40000 | > 40000 |  | 
2 |  | 2 | 8 | 0.6 | 3 | 6 | COc1ccc(NC(=O)N2CCCCN3[C@H](CN(C)C(C)=O)[C@H](c4ccc(C#Cc5ccccc5)cc4)[C@@H]3C2)cc1 [Compound 16, (8R,9S,10S)-N-(4-methoxyphenyl)-10-((N-methylacetamido)methyl)-9-(4-(phenylethynyl)phenyl)-1,6-diazabicyclo[6.2.0]decane-6-carboxamide] | greatest reduction in oocysts | 27000 | 25000 |  | selectivity index [9]: > 10,000
3 |  | 6 | 7 | 5 | 4 | 6 | COc1ccc(NC(=O)N2CCCCN3[C@H](CN(C)S(C)(=O)=O)[C@H](c4ccc(C#Cc5ccccc5)cc4)[C@@H]3C2)cc1 [Compound 17, (8R,9R,10S)-N-(4-methoxyphenyl)-10-((N-methylmethylsulfonamido)methyl)-9-(4-(phenylethynyl)phenyl)-1,6-diazabicyclo[6.2.0]decane-6-carboxamide] | greatest reduction in oocysts | > 40000 | > 40000 |  | 
4 |  | < 0.4 |  | < 0.4 | 2 | < 0.4 | COc1ccc(NC(=O)N2C[C@@H](O)[C@@H](O)CN3[C@H](CS(C)(=O)=O)[C@H](c4ccc(C#Cc5ccccc5)cc4)[C@@H]3C2)cc1 [Compound 18, (3S,4R,8R,9R,10S)-3,4-dihydroxy-N-(4-methoxyphenyl)-10-((methylsulfonyl)methyl)-9-(4-(phenylethynyl)phenyl)-1,6-diazabicyclo[6.2.0]decane-6-carboxamide] |  | 6000 | 8000 |  | 

Further lines, the compound ahead of its results:

Row | Compound | EC50 [1, 13] [nM] | EC50 [1, 14] [nM] | EC50 [1, 15] [nM] | EC50 [4] [nM] | EC50 [5] [nM] | EC50 [8] [nM] | reduction in oocyst shedding (oocysts per mg feces) [3] | CC50 [6] [nM] | CC50 [7] [nM] | outcome of treatment in C. parvum infected NSG mice [12] | other results
5 | COC[C@@]12CN(C(=O)Nc3ccc(OC)cc3)CCCCN1[C@H](CO)[C@@H]2c1ccc(C#Cc2ccccc2)cc1 [Compound 2, (8R,9S,10S)-10-(hydroxymethyl)-8-(methoxymethyl)-N-(4-methoxyphenyl)-9-(4-(phenylethynyl)phenyl)-1,6-diazabicyclo[6.2.0]decane-6-carboxamide] | 580 |  |  |  |  |  |  |  |  |  | EC50 [2]: 627 nM
6 | COc1ccc(NC(=O)N2CCCCN3[C@H](CO)[C@H](c4ccc(C#Cc5ccccc5)cc4)[C@@H]3C2)cc1 [Compound 9, (8R,9R,10S)-10-(hydroxymethyl)-N-(4-methoxyphenyl)-9-(4-(phenylethynyl)phenyl)-1,6-diazabicyclo[6.2.0]decane-6-carboxamide] | < 73 |  |  |  |  |  | significant reduction in oocyst shedding |  |  |  | 
7 | COc1ccc(NC(=O)N2CCCCN3C[C@H](c4ccc(C#Cc5ccccc5)cc4)[C@@H]3C2)cc1 [Compound 19, (8R,9S)-N-(4-methoxyphenyl)-9-(4-(phenylethynyl)phenyl)-1,6-diazabicyclo[6.2.0]decane-6-carboxamide] |  | 36 | 62 | 31 | 55 | 96 |  | 25000 | 10000 |  | fold shift in EC50, mutant transgenic vs wild type transgenic [10]: 9 fold; EC50 ([10]; Cryptosporidium parvum, HCT-8, 48 h, read-out: EC50, mutant transgenic): 372 nM; EC50 [11]: 40.8 nM
8 | O=C(Nc1ccc(Cl)cc1)N1CCN(c2ccc3nncn3n2)CC1 [MMV665917] |  |  |  |  |  |  |  |  |  | curative | 
9 | CC(C)/N=c1\cc2n(-c3ccc(Cl)cc3)c3ccccc3nc-2cc1Nc1ccc(Cl)cc1 [clofazimine] |  |  |  |  |  |  |  |  |  | show no improvement at all | 
10 | NC[C@@H]1O[C@H](O[C@H]2[C@@H](O)[C@H](O[C@@H]3[C@@H](O)[C@H](N)C[C@H](N)[C@H]3O[C@H]3O[C@H](CO)[C@@H](O)[C@H](O)[C@H]3N)O[C@@H]2CO)[C@H](N)[C@@H](O)[C@@H]1O [paromomycin] |  |  |  |  |  |  |  |  |  | quickly relapse | 
